Laboratory results reported in patent publication EP2325185A1, “Plk inhibitor” (GPC Biotech AG, priority 2009, dated 2011).

Key:
Type in all cases: cell-based
Plk1 = Plk1 (Homo sapiens, UniProt P53350); assay: Cellular Plk1 kinase activity: nucleophosmin (B23) Ser4 phosphorylation in HCT116 cells (MSD electrochemiluminescence); conditions: nocodazole-treated, 4 hours compound exposure, read-out: Biochemical IC50 Nucleophosmin assay
Experimental: Cellular Plk1 kinase activity was measured by quantification of nucleophosmin (B23) Ser4 phosphorylation in a cancer cell line. Nucleophosmin (B23) Ser4 is phosphorylated by Plkl, and this phosphorylation can be specifically detected by cross-reactivity of a phospho-Mekl/2 antibody that is able to recognizes a mitotic-specific phosphorylated form of nucleophosmin (B23) in a nocodazole dependent way (Zhang, H., Shi, X., Paddon, H., Hampong, M., Dai, W., and Pelech, S. (2004) B23/Nuleophosmin Serin 4 Phosphorylation Mediates Mitotic Functions of Polo-like Kinase 1. J. Biol. Chem., 279(34), 35726-35734).
Briefly, HCT116 cells (ATCC, Order No. CCL-247) were plated in 96 well dishes 24 hours prior to nocodazole treatment at 25 000 cells per well. Cells were then treated with 100 ng/ml nocodazole (Sigma-Aldrich, # M1404). […]
The cell lysates were thawed at room temperature and 40 µl were incubated on 96-well MULTI-ARRAY High Bind plates (L11XB; MSD) for 1.5 - 2 hours at room temperature. […] Then, 150 µl of 1x Read Buffer T (R92TC; MSD) were carefully added to each well and the plates were quantitatively detected for each well with a SECTOR™ Imager 6000 (MSD).
Inhibitory activity of the compound (IC) was calculated as % inhibition of nucleophosmin (B23) Ser4 phosphorylation compared to cells […].

IMR-90 = assay: SRB cell proliferation assay, IMR-90; conditions: Homo sapiens, IMR-90; 72 hours, SRB; read-out: CELLULAR IC50 IMR-90
Experimental: (§1) Cells were exposed to the test compound racemate at various concentrations appropriate to determine an IC50 for 72 hours. Cell proliferation was measured using the SRB assay according to Shekan et al (J Natl Cancer Inst (1990) 82, 1107-112) in order to estimate the IC50 values shown in Table 3. Briefly, cells were plated in 96 well dishes 24 hours prior to compound addition at the densities specified in Table 5.1. The assay was terminated with the addition of cold TCA to a final concentration of 10% after growth medium has been removed and the plates were incubated over night at 4°C. The plates were then washed 5 times with water and 100µl of a Sulforhodamine B solution ([…]) was added to each well. The plates were then incubated for 10 minutes at room temperature before removal of unbound dye by washing with 1% acetic acid. The bound dye was solubilised with 10 mM Trizma base and the absorbance read at OD520.
(§2) Inhibitory activity of the compound (IC) was calculated as % inhibition of cell proliferation compared to cells treated with the solvent (DMSO).
(§3) Table 8.1: 18-Cell Line Panel

HCT 116 = assay: SRB cell proliferation assay, HCT 116; conditions: Homo sapiens, HCT-116; 72 hours, SRB; read-out: CELLULAR IC50 HCT 116
Experimental: as §1, §2, §3

HT-29 = assay: SRB cell proliferation assay, HT-29; conditions: Homo sapiens, HT-29; 72 hours, SRB; read-out: CELLULAR IC50 HT-29
Experimental: as §1, §2, §3

Chain of Plk1 (P53350 whole entry, species assumed): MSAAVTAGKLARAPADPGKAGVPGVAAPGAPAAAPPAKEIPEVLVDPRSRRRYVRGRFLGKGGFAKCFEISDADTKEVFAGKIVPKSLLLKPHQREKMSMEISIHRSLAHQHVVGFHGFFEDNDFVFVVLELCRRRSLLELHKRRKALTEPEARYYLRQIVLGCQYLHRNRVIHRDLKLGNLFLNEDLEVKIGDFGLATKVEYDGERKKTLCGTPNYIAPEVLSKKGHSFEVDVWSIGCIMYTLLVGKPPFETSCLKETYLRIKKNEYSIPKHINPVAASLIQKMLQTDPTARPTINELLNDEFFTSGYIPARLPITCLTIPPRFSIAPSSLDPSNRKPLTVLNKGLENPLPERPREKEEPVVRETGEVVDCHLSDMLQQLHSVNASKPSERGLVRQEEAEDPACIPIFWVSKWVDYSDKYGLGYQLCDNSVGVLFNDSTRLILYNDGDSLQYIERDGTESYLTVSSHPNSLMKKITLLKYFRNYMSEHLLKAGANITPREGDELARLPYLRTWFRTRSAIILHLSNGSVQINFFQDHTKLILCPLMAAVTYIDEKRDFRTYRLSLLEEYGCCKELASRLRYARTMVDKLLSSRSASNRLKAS

IC50 (Plk1): < 100 nM | IC50 (HCT 116): < 1000 nM | IC50 (HT-29): < 1000 nM
Structure (SMILES): CCC1C(=O)N(C)c2cnc(Nc3ccc(C(=O)N[C@H]4CC[C@H](N5CCN(CC6CC6)CC5)CC4)cc3OC)nc2N1N(C)C (mixture of isomers) [racemic mixture containing compound 1 and (S)-enantiomer, N-[trans-4-(4-Cyclopropylmethyl-piperazin-1-yl)-cyclohexyl]-4-(8-dimethylamino-7-ethyl-5-methyl-6-oxo-5,6,7,8-tetrahydro-pteridin-2-ylamino)-3-methoxy-benzamide]
IC50 (IMR-90): > 1000 nM
